The values below come from patent publication US20190315878A1, “BISPECIFIC ANTIBODIES THAT MODULATE TLR-4 SIGNALING AND USES THEREOF” (ARGOS THERAPEUTICS INC., priority 2016, published 2019).

Assay [1] relates to stimulated PBMC cultures. Put plainly: Cytokine secretion from stimulated PBMC cultures (Cytometric Bead Array). It is filed as cell-based, human. The note with it: COX-2 inhibitor in combination with sCD83. How it is done: (§1) To evaluate cytokine secretion from stimulated PBMC cultures in response to sCD83 treatment, the supernatant was collected after culture and analyzed for human cytokines using the Cytometric Bead Array kit (BD® Biosciences) according to the manufacturer's instructions. Data were analyzed using the FCAP Array software (BD® Biosciences). PGE2 concentrations were measured using a competitive ELISA kit (Thermofisher).

Assay [2] deals with stimulated PBMC cultures. The experiment in a line: PGE2 secretion from stimulated PBMC cultures (competitive ELISA). It is filed as cell-based, human. To be noted: COX-2 inhibitor in combination with sCD83; FIG. 9E. The method, then:
as §1
In general terms: ELISA stands for enzyme-linked immunosorbent assay.

A further assay concerns the target T1, MD-2 binding to sCD83-m3 (Homo sapiens, UniProt Q9Y6Y9).
T1 sequence (Q9Y6Y9 17-160 limits assumed): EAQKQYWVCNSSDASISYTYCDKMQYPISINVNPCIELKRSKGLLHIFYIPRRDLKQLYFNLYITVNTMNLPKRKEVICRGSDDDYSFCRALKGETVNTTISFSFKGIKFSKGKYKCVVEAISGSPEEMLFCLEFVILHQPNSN
The experiment in a line: LPS derivatives pre-incubated with MD-2; loss of MD-2 binding to sCD83 (cell free ELISA). To be noted: for % inhibition of MD-2 binding to sCD83-m3: LPS derivatives pre-incubated with MD-2, cell free ELISA; for blocking of MD-2 binding to sCD83: FIG. 6B. How it is done:
sCD83 was prepared at 1 μg/mL in Coating Buffer (BD® Bioscience OptEIA ELISA Reagent Set B) and incubated overnight at 4° C. Plates were washed with wash buffer (PBS with 0.05% Tween 20, BD® Bioscience OptEIA Reagent Set B) three times using an ELx405 auto plate washer and then 300 μl of blocking buffer (1% BSA in PBS) was added to each well. The plates were then incubated for 2 hours at 37° C. to block and then washed three times with wash buffer. The protein of interest (MD-2, CD14, MD-2+LPS, or LPS) (R&D Systems®, Inc., Sigma) was serially diluted in seven tubes, and then 100 μl of the diluted protein samples were transferred to the appropriate wells on the capture plate. The plates were then incubated for 1 hour at room temperature in the dark. Plates were washed and goat anti-human biotinylated CD83 detection antibody (R&D Systems®, Inc.) was added at 100 μl/well and incubated for 2 hours at room temperature in the dark. The plates were then washed, and streptavidin-HRP was prepared at a 1:1000 dilution and added at 100 μl/well. The plates were incubated for 1 hour at room temperature in the dark and then washed, and development solution was prepared by combining equal parts of Substrate A plus Substrate B (BD® OptEIA ELISA Reagent Set B) and added to the plates (100 μl/well). The plates were allowed to develop for 1-10 minutes and the reaction was stopped by adding 50 μl/well of stop solution (BD® OptEIA reagents set B). The plates were analyzed on a ELx800 universal microplate reader at 450 nm.
In order to map the sCD83 binding site on MD-2, recombinant MD-2 protein was pre-incubated with each of several LPS derivatives prior to being added to plates coated with sCD83 protein. […] If MD-2 bound to LPS or the LPS derivatives blocked sCD83 binding, the interaction of sCD83 with MD-2 may mimic antagonist regulation of TLR signaling.

For assay [3], the system named is IRAK-1. The experiment in a line: Western blotting of GM-CSF-cultured monocytes. In kind it is cell-based, human. To be noted: 60 minutes; 25 μg/ml sCD83 or 100 ng/ml LPS; FIG. 7A. How it is done: Monocytes were isolated from PBMC using negative selection (Stemcell) and cultured in R-10 medium ((10% fetal bovine serum (FBS; Atlanta Biologicals), Roswell Park Memorial Institute-1640 (supplemented with 10 mM 4-2-hydroxyethyl-1-piperazineethanesulfonic acid pH 7.4, 1 mM sodium pyruvate, 0.1 mM nonessential amino acids, 2 mM sodium glutamate, and […] 2-mercaptoethanol; Invitrogen® Corp.)) with GM-CSF overnight. sCD83 or LPS was then added for the indicated time points. Cells were lysed in ice cold RIPA buffer in the presence of a protease/phosphatase inhibitor cocktail ([…]). Bradford (BCA) protein assay (Thermo Scientific) was performed to determine total protein concentrations. 4-5 μg of each lysate sample was run on each lane of a Criterion 10-20% Tris-HCL gel at 200V for 50 minutes. The gel was transferred to PVDF membrane at 100V for 75 minutes. […]
The inventors studied the expression of IRAK proteins in the presence of sCD83. […] IRAK-1 protein was detected in untreated cultures and LPS-treated cultures, in contrast to cultures treated with sCD83 (FIG. 7A). Furthermore, no change in IRAK-2, IRAK-4, and IRAK-M protein levels was detected when cells were treated with sCD83 for 60 minutes.
For orientation: Immunoblotting shows a protein as a band on a membrane.

In assay [4] the test system is IRAK-1. The experiment in a line: IRAK assay of CD83 activity in macrophage cultures (Western blot). In kind it is cell-based, human. How it is done:
The IRAK Assay measures the rapid down-regulation of IRAK-1 protein by sCD83 in macrophage cultures. PBMCs were cultured in the presence of GM-CSF for 5 days. Macrophages were harvested and cultured overnight in media containing GM-CSF, then incubated in the presence or absence of a test antibody in 1 mL cultures for various times. Cell lysates were then used to prepare a Western blot and evaluated for IRAK expression as described in more detail in working Example 3.
One vial (2×10^8 total cells) of 2124557 PBMCs were thawed and cultured in T-150 flask with 1000 U/mL GM-CSF for 5 days. The macrophages were harvested, counted and resuspended at 1×10^6 cells/mL in R-10 media with GM-CSF and then cultured overnight. The cells were incubated with various preparations of sCD83 polypeptides, +/−25 μg/mL in 1 mL cultures for various times and then lysed in ice cold RIPA buffer with protease/phosphatase inhibitor cocktail. Bradford (BCA) protein assay was performed to determine total protein concentration.
4-5 μg of each lysate sample was run on a lane of a Criterion 10-20% Tris-HCL gel at 200V for 50 minutes. The gel was transferred to PVDF membrane at 100V for 75 minutes. […]

Assay [5] relates to sCD83-m3 binding on monocytes. The experiment in a line: Antibody blocking of sCD83-m3 binding to PBMCs / monocytes (Example 2). Also noted: species or system human. To be noted: post-thaw PBMCs. How it is done: For antibody blocking experiments, cells were pre-incubated with the indicated purified antibodies to CD14 (clone M5E2, BD® Biosciences; clone 61D3, eBioscience® Corp.; clone My4, Beckman Coulter®, Inc.), to CD44s (clone 515, BD® Biosciences; clone 1M7, eBioscience® Corp.; and clone 156-3c11 and clone 5F12, Invitrogen® Corp.), to CD44v6 (clone VFF-7, eBiosciences® Corp.) to TLR4/MD-2 (clone MTS510, eBioscience® Corp.) or to MD-2 (clone 984, eBioscience® Corp.; clone 288307, R&D Systems®, Inc.) for 15 minutes at room temperature without washing prior to addition of sCD83 protein. Isotype control IgG1 and IgG2a antibodies were purchased from eBioscience® Corp.. Cells were washed with 2 mL BD® Stain Buffer (FBS) and incubated with 5 μl of Goat anti-human CD83 biotin (R&D Systems®, Inc.) for 15 minutes at room temperature. Cells were washed twice with 2 ml BD® Stain Buffer (FBS) and incubated with 20 μl of Streptavidin APC (BD® Biosciences) for 15 minutes at room temperature. Background staining was determined without the addition of sCD83 protein. […]

`CS(=O)(=O)Nc1ccc([N+](=O)[O-])cc1OC1CCCCC1` [NS-398]: the IL-6 secretion result with stimulated PBMC cultures [1] (FIG. 9C) is on record as “marginal effect”. Further, in the assay on stimulated PBMC cultures [1] (FIG. 9D), the “sCD83 induced IL-10 secretion” value is “suppressed sCD83 inducted IL-10 secretion”. The PGE2 production result in the assay with stimulated PBMC cultures [2] is on record as “blocked PGE2 production”.
In the case of KDO-lipid A [KDO-Lipid A variant], the “% inhibition of MD-2 binding to sCD83-m3” value on MD-2 binding to sCD83-m3 is listed as 93%. Besides, the “blocking of MD-2 binding to sCD83” value at MD-2 binding to sCD83-m3 (added first to sCD83 bound plates and washed prior to addition of MD-2 protein) is recorded as “no longer blocked MD-2 binding to sCD83”; at MD-2 binding to sCD83-m3 (pre-incubated with MD-2), “prevented MD-2 binding to sCD83”; at MD-2 binding to sCD83-m3 (pre-incubated with MD-2, listed as KDO) it was “blocks sCD83 binding to MD-2”.
Consider diphosphoryl-Lipid A [Lipid A Diphos], for which the “% inhibition of MD-2 binding to sCD83-m3” value at MD-2 binding to sCD83-m3 was 19%.
Regarding lipopolysaccharide [LPS], the IRAK-1 protein expression result in the assay on IRAK-1 [3] was “detected”. Also, in the assay with IRAK-1 [4], the “down-regulation of IRAK-1 protein in macrophage cultures” value is recorded as “does not have this effect”. Moreover, the IRAK assay result with IRAK-1 [4] (macrophages, 25 μg/mL) is reported as “negative result”. Also, the “% inhibition of MD-2 binding to sCD83-m3” value on MD-2 binding to sCD83-m3 was determined as 25%. For the same molecule, in assay [5], the “% inhibition (relative to control)” value was determined as 5%.
For “monophosphoryl-Lipid A [Lipid A Monophos]”, on MD-2 binding to sCD83-m3, the “% inhibition of MD-2 binding to sCD83-m3” value came to 22%.
